According to patent US12226490B2, “Anti-ROR1 antibody conjugates, compositions comprising anti ROR1 antibody conjugates, and methods of making and using anti-ROR1 antibody conjugates preliminary class” (Sutro Biopharma, Inc., priority 2022, dated 2025):

Experiments:
[1] = system: ROR1 positive Ntera-2 cell; experiment: In vitro cell killing of ROR1 ADCs, ROR1 positive cells (Cell Titer-Glo, 120 hours); format: cell-based, human; conditions: Table 13
From the text: (§1) Ntera-2, MDA-MB-231, MCF7, HCT116 and Mino cells were obtained from ATCC. HCT116-hRor1-D02 clone was generated by transfecting HCT116 cells with a plasmid containing human Ror1 cDNA sequence and selected for highest stable expression of hRor1 on the cell surface. MDA-MB-231, MCF7, HCT116 and HCT116-Ror1 cell were maintained in Ham's F-12 high glucose DMEM (50-50) (Cellgro-Mediatech; Manassas, VA) supplemented with 10% heat-inactivated fetal bovine serum (Hyclone; Thermo Scientific; Waltham, MA), 1% Penicillin/Streptomycin (Cellgro-Mediatech; Manassas, VA) and 2 mmol/L-glutamax (Life Technology; Carlsbad, CA). Mino cells were maintained in RPMI-1640 medium (Cellgro-Mediatech; Manassas, VA) supplemented with 20% heat-inactivated fetal bovine serum (Hyclone; Thermo Scientific; Waltham, MA), 1% Penicillin/Streptomycin (Cellgro-Mediatech; Manassas, VA) and 2 mmol/L-glutamax (Life Technology; Carlsbad, CA).
(§2) Anti-ROR1 antibody was conjugated to different linker-warheads described herein at different DARs and the cell killing activity of the ADCs were evaluated on ROR1 positive Ntera-2 cell and ROR1 negative MCF7 cells.
(§3) Ntera-2 or MCF7 cell at 625 cells/25 μL were seeded in a 384-well flat bottom white polystyrene plate one day before the assay start. ADCs were formulated at 2× starting concentration. Filter sterilized samples were serial diluted (1:3) under sterile conditions and added onto cells in triplicates. Plates were cultured at 37° C. in a CO2 incubator for 120 hours. […] Relative luminescence was measured on an ENVISION® plate reader (Perkin-Elmer; Waltham, MA). Relative luminescence readings were converted to % viability using untreated cells as controls. […]
(§4) To evaluate if the cell killing activity of anti-ROR1 ADCs is dependent on antibody binding to ROR1 expressed on cell surface, the same linker-warheads (LP3, LP4) were conjugated to an anti-GFP antibody and the cell killing of the anti-ROR1 and anti-GFP ADCs were evaluated in cell killing assays on ROR1 positive Ntera-2 cell and ROR1 negative MCF7 cells.

ROR1 negative MCF7 cells = experiment: In vitro cell killing of ROR1 ADCs, ROR1 negative cells (Cell Titer-Glo, 120 hours); format: cell-based, human; conditions: Table 13
From the text: as §1, §2, §3, §4

[2] = system: ROR1-positive Ntera-2 cells; experiment: Induction of immunogenic cell death markers (calreticulin by FACS, HMGB1 by ELISA); format: cell-based, human; conditions: 3 days treatment
Protocol: ROR1-positive Ntera-2 cells were treated with Conjugate 46 or exatecan for 3 days. Calreticulin on the cell surface was measured by FACS and HMGB1 in the cell culture medium were measured by ELISA. […] FIG. 20A and FIG. 20B illustrate calreticulin expression and HMGB1 release of Ntera-2 cells in the presence of Conjugate 46 or exatecan compared to the un-conjugated antibody and an isotype control of Conjugate 46.

[3] = system: ROR1-positive Ntera-2 cells co-cultured with PMBCS; experiment: Ntera-2 / PBMC co-culture: target cell killing and monocyte activation (FACS); format: cell-based, human
Protocol: ROR1-positive Ntera-2 cells were co-cultured with PMBCS at E:T=[…] and treated with Conjugate 46 or exatecan for 3 days. Live target cell count and monocyte activation were measured by FACS. […] FIG. 21A and FIG. 21B are graphs showing the percent of live target cells and monocyte activation in Ntera-2 cells following treatment with Conjugate 46 or exatecan compared to the un-conjugated antibody and an isotype control of Conjugate 46. […] Unconjugated anti-ROR1 antibody or a non-targeted ADC had no activity. […] Viability and calreticulin surface expression were measured and presented as a percentage compared to untreated cells.

TNBC PDX tumors = experiment: TNBC PDX models, single agent or combination with olaparib; format: in vivo, athymic nude Fox1^nu mice; conditions: CTG-0437, CTG-1017, and CTG-2055; olaparib p.o. 50 mg/kg qd×28
From the text: The activity of Conjugate 46 as a single agent or in combination with the PARP inhibitor olaparib was additionally assessed in TNBC PDX models. Briefly, PDX tumors, spanning varying levels of ROR1 expression and sensitivity to olaparib, were passaged in athymic nude Fox1^nu mice before being processed into tumor fragments for subcutaneous implantation into the hind flank of mice for study initiation. When tumors reached a volume of around 150-300 mm^3, the mice were randomized and enrolled into the study. Tumor-bearing mice were administered up to three weekly doses (qw×3) of Conjugate 46 i.v. at 5 mg/kg and up to twenty-eight daily doses (qd×28) of olaparib p.o. at 50 mg/kg.
Combination treatment with Conjugate 46 and olaparib (50 mg/kg, qd×28) is conducted using a 2 mg/kg, qw×3 dosing regimen for Conjugate 46. The combination therapy is assessed in six TNBC PDX models as described in Example 26.

[4] = target: T1, HCT116 cells overexpressing human ROR1 (HCT116-hRor1) (Homo sapiens, UniProt Q01973); experiment: FACS cell binding, affinity maturation leads; conditions: Table 11 (SP34 light chain)
T1 construct: expressed in transfected cells; host or cells: HCT116
From the text: as §1
Variants with expression levels >250 nM were tested in a fluorescence-activated cell sorting (FACS) cell-binding assay. […]
A mix of ROR1 positive and negative cells was prepared as follows. […] Cells were then washed 2× with FACS buffer and fixed for 10 minutes in 200 μl PBS with 2% PFA prior to fluorescence detection. […] Mean Fluorescence Intensity of ROR1 antibody binding was analyzed using FlowJo® software (Tree Star, Inc.).

[5] = Differential scanning fluorimetry (protein thermal shift; TM1 Fc, TM2 Fab); format: physicochemical; conditions: melting temperature of the Fab domain; Table 11
How it was run: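 Protein at 0.2-2 mg/mL, mixed 1:1 with diluted SYPRO Orange in PBS, heated 25 to 95 °C at about 1.5 °C/min with fluorescence read per 0.1 °C step, in quadruplicate. TM1 is the Fc (CH2) unfolding transition and TM2 the Fab transition.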

human ROR1-Fz = target: T2, human ROR1-Fz (Homo sapiens, UniProt Q01973); experiment: Biacore off-rate and kinetic analysis, ROR1 frizzled domain; format: binding; conditions: Table 11 (SP34 light chain)
T2 construct: Frizzled (Fz, residues 165-305); HIS6 (C); purchased Acro Biosystems; host or cells: HEK293

[6] = co-culture with PMBCS at E:T=10.1, 3 days

With `CC[C@@]1(O)C(=O)OCc2c1cc1n(c2=O)Cc2c-1nc1cc(F)c(C)c3c1c2[C@@H](N)CC3` [exatecan] the “NTERA-2 Span” value [1] was 98%, the “MCF-7 Span” value (ROR1 negative MCF7 cells) was 91% and the “markers for immunogenic cell death (calreticulin translocation to the cell surface and HMGB1 release)” value [2] was “induced markers for immunogenic cell death”. For the same molecule, the “cell killing of target cells (live target cell count)” value [3, 6] was “induced potent cell killing of target cells”, the “monocyte activation (CD86 expression)” value [3, 6] was “potently induced monocyte activation” and the “calreticulin on the cell surface” value ([3]; concomitant with reduced viability (FIG. 21C)) was “calreticulin could be detected on the cell surface”.

In the case of `O=C(c1cc(Cc2n[nH]c(=O)c3ccccc23)ccc1F)N1CCN(C(=O)C2CC2)CC1` [olaparib], the “tumor growth suppression, single agent” value (TNBC PDX tumors) is reported as “moderate tumor growth suppression”.

B1: SRP2196-B07 (antibody, V domains shown)
VH: EVQLVESGGGLVQPGGSLRLSCAASGFNITGYHIHWVRQAPGEGLEWVGYISPNSGATYYADSVEGRFTISADTSKNTAYLQMHSLRAEDTAVYYCTRDSRRYVRGWDYWGQGTLVTVSS
VL: QAVVTQESALTTSPGETVTLTCRSSTGAVTTSNYANWVQEKPDHLFTGLIGGTNKRAPGVPARFSGSLIGDKAALTITGAQTEDEAIYFCALWYSNLWVFGGGTKLTVL
In the case of B1, the “HCT 116-hROR1 Binding Bmax” value [4] is reported as 15139 MFI, the TM2 [5] is reported as 69 °C and the “Biacore human ROR1-Fz ka” value (human ROR1-Fz) is reported as 185000 M⁻¹ s⁻¹. For the same molecule, the “Biacore human ROR1-Fz kd” value (human ROR1-Fz) was 0.000269 s⁻¹.
